One series has as its target T1, MAO-B (Homo sapiens, UniProt P27338).
T1 sequence (P27338 1-520): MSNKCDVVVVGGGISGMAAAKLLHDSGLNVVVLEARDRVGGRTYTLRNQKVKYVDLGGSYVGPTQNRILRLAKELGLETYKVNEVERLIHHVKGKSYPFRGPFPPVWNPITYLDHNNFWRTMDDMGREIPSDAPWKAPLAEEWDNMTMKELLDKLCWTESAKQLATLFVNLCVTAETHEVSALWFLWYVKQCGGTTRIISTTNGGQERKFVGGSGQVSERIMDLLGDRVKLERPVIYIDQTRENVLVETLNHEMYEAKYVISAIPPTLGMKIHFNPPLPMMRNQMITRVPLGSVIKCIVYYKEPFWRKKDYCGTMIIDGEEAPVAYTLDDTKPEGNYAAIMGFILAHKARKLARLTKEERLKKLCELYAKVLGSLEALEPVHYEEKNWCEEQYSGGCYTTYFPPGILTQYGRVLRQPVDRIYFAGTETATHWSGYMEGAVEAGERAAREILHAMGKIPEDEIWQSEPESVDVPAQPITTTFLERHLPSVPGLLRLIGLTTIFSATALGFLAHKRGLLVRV
The experiment in a line: hMAO-B inhibition, spectrophotometric assay. The conditions noted are these: for inhibition at 10 µM: read-out: MAO-B % Inhibition, single dose concentration of 10 µM; for Selectivity index for inhibition of MAO-B: IC50 MAO-A divided by IC50 MAO-B.

The next series deals with T2, recombinant human MAO-A (Homo sapiens, UniProt P21397).
T2 sequence (P21397 1-527): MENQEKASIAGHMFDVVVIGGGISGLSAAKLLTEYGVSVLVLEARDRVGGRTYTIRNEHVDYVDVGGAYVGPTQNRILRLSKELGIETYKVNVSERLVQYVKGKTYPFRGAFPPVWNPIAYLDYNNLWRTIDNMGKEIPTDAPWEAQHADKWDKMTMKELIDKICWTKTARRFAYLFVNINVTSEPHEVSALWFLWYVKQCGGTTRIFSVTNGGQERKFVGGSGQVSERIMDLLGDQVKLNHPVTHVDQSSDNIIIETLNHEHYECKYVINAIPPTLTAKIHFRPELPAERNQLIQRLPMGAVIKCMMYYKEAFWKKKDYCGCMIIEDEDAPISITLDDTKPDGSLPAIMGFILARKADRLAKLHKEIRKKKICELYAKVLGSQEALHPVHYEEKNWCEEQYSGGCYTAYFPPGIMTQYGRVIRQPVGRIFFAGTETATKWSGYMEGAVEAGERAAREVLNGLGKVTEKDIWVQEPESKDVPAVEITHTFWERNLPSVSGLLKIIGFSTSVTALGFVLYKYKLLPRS
Put plainly: hMAO-A inhibition, spectrophotometric assay. The series is classed as biochemical. The conditions noted are these: for inhibition at 10 µM: single dose concentration of 10 µM. The text has this:
Two different MAO isoforms are known.

For a further series, the system named is BV2 cells. The experiment in a line: BV2 cell viability, WST-1 assay. The conditions noted are these: doses of 1, 10, 30 and 50 µM. The series is classed as cell-based. The text has this:
Promising antineurodegenrative candidate molecules should not impair viability of CNS cells. Microglia are critical cells within CNS involved in microglia–neuron communications and are responsible for maintenance of brain integrity and health[61]^,[62]. However, under neuroinflammatory conditions, aberrant activation of microglia contributes to neurodegeneration and disease progression. In this regard, suppression of the abnormal activation while maintenance of viability of microglia is important considerations. […] The viability assay was carried out using the water-soluble tetrazolium reagent WST-1 which eliminates the formazan dissolution step requested in case of MTT[65] employing multiple doses of 1, 10, 30, and 50 µM. […] In lieu of this, it might be inferred that these compounds showing effective inhibition of MAO-B activity and triggering no impairment of microglia viability are good candidates might be advanced for further evaluation towards the development of multifunctional molecules for neurodegenerative diseases such as PD.
The impact of the compounds on the viability of cells was performed by the well-known WST-1 assay method as described in the Supporting information.
Background: Tetrazolium assays rely on reduction of a dye to a coloured formazan, in cell work by metabolically active cells.

The results in this text go back to article PMC8881063 (Journal of Enzyme Inhibition and Medicinal Chemistry, 2022).

By IC50 is commonly meant the concentration at which inhibition is half-maximal.

Experimental for MAO-B: The inhibitory activities of the compounds against hMAO-A and hMAO-B enzymes were evaluated referring to a previously described method (Supporting information)[49].

As for `O=C1/C(=C/c2ccccc2O)Oc2cc(O)ccc21` [Compound 1a], the IC50 against MAO-B and on recombinant human MAO-A was over 10 µM throughout. The inhibition at 10 µM at MAO-B is under 50%; on recombinant human MAO-A it was 9.02%.
Take `O=C1/C(=C/c2cccc(O)c2)Oc2cc(O)ccc21` [Compound 1b]: the IC50 at MAO-B and on recombinant human MAO-A was over 10 µM each time. Moreover, the inhibition at 10 µM is 13.6% at MAO-B and 16.6% at recombinant human MAO-A.
As to `O=C1/C(=C/c2cccc(O)c2O)Oc2cc(O)ccc21` [Compound 1c, (Z)-2–(2,3-Dihydroxybenzylidene)-6-hydroxybenzofuran-3(2H)-one], on MAO-B, half-maximal inhibition (IC50) was put at 3 µM, the “Selectivity index for inhibition of MAO-B” value is listed as over 3.34 and the inhibition at 10 µM worked out at 58.9%. On recombinant human MAO-A, the IC50 was over 10 µM and the inhibition at 10 µM was found to be 46.2%.
As to `O=C1/C(=C/c2ccc(O)cc2O)Oc2cc(O)ccc21` [Compound 1d], at MAO-B, the IC50 was over 10 µM and the inhibition at 10 µM amounted to 48.3%. At recombinant human MAO-A, the IC50 is over 10 µM and the inhibition at 10 µM is 44.1%.
In the case of `O=C1/C(=C/c2ccc(O)c(O)c2)Oc2cc(O)ccc21` [Compound 1e], on MAO-B, half-maximal inhibition (IC50) required 2.41 µM, the “Selectivity index for inhibition of MAO-B” value is listed as 1.93 and the inhibition at 10 µM amounted to 61.8%. Also, at recombinant human MAO-A, the IC50 came out at 4.66 µM and the inhibition at 10 µM is 64.9%.
As for `O=C1/C(=C/c2cc(O)ccc2O)Oc2cc(O)ccc21` [Compound 1f], at MAO-B, the IC50 worked out at 3.52 µM, the “Selectivity index for inhibition of MAO-B” value stood at 2.21 and the inhibition at 10 µM was found to be 61.4%. On recombinant human MAO-A, the IC50 was found to be 7.77 µM and the inhibition at 10 µM was 53.3%.
`O=C1/C(=C/c2cc(O)cc(O)c2)Oc2cc(O)ccc21` [Compound 1g, (Z)-2–(3,5-Dihydroxybenzylidene)-6-hydroxybenzofuran-3(2H)-one]: the IC50 on MAO-B and at recombinant human MAO-A was over 10 µM in each case. The inhibition at 10 µM on MAO-B turned out to be 12.8%; on recombinant human MAO-A it was 35.7%.
Turning to `O=C1/C(=C/c2cc(O)c(O)c(O)c2)Oc2cc(O)ccc21` [Compound 1h], on MAO-B, the IC50 was over 10 µM and the inhibition at 10 µM stood at 47.5%. In addition, on recombinant human MAO-A, the 50% inhibitory concentration (IC50) is over 10 µM and the inhibition at 10 µM came to 49.5%.
As for `COc1ccccc1/C=C1\Oc2cc(O)ccc2C1=O` [Compound 1i], on MAO-B, inhibition was half-maximal at 1.84 µM (IC50), the “Selectivity index for inhibition of MAO-B” value was over 54 and the inhibition at 10 µM was determined as 75.5%. Besides, at recombinant human MAO-A, the IC50 was over 100 µM and the inhibition at 10 µM is 5.49%.
For `COc1cccc(/C=C2\Oc3cc(O)ccc3C2=O)c1` [Compound 1j], on MAO-B, the IC50 stood at 2.41 µM, the “Selectivity index for inhibition of MAO-B” value is over 41 and the inhibition at 10 µM turned out to be 73.2%. In addition, at recombinant human MAO-A, the IC50 is over 100 µM and the inhibition at 10 µM is 7.43%.
For the compound `COc1ccc(/C=C2\Oc3cc(O)ccc3C2=O)cc1` [Compound 1k], on MAO-B, the IC50 came to 0.365 µM and the inhibition at 10 µM stood at 94.6%. At recombinant human MAO-A, the IC50 was determined as 6.98 µM and the inhibition at 10 µM came to 53%.
In the case of `COc1cccc(/C=C2\Oc3cc(O)ccc3C2=O)c1OC` [Compound 1l], on MAO-B, the IC50 stood at 3.52 µM, the “Selectivity index for inhibition of MAO-B” value is given as over 28 and the inhibition at 10 µM worked out at 70.8%. At recombinant human MAO-A, the IC50 is over 100 µM and the inhibition at 10 µM is -2.21%.
With `COc1ccc(OC)c(/C=C2\Oc3cc(O)ccc3C2=O)c1` [Compound 1m], on MAO-B, the IC50 was over 10 µM and the inhibition at 10 µM is 46.3%. On recombinant human MAO-A, the IC50 was over 10 µM and the inhibition at 10 µM is -0.29%.
Take `COc1ccc(/C=C2\Oc3cc(O)ccc3C2=O)cc1OC` [Compound 1n]: on MAO-B, the IC50 was over 10 µM and the inhibition at 10 µM is 42.6%. Besides, at recombinant human MAO-A, the 50% inhibitory concentration (IC50) was over 10 µM and the inhibition at 10 µM was determined as 4.52%.
For `COc1cc(/C=C2\Oc3cc(O)ccc3C2=O)cc(OC)c1` [Compound 1o], at MAO-B, the IC50 was over 10 µM and the inhibition at 10 µM came to 41.2%. Besides, at recombinant human MAO-A, the IC50 was over 10 µM and the inhibition at 10 µM worked out at 0.37%.
Consider `COCOc1ccc(/C=C2\Oc3cc(O)ccc3C2=O)cc1` [Compound 1q], for which, at MAO-B, half-maximal inhibition (IC50) required 0.593 µM, the “Selectivity index for inhibition of MAO-B” value is recorded as over 168 and the inhibition at 10 µM turned out to be 89%. Also, the “Impact on viability of BV2 cells” value in the series on BV2 cells is “none of the tested concentrations”. For the same compound, at recombinant human MAO-A, the IC50 is over 100 µM and the inhibition at 10 µM turned out to be 24.5%.
For `COc1ccc2c(c1)O/C(=C\c1ccccc1O)C2=O` [Compound 1r], the IC50 against MAO-B and at recombinant human MAO-A was over 10 µM each time. Moreover, the results for the inhibition at 10 µM at MAO-B and at recombinant human MAO-A were 22.5% and 2.29%, respectively.
For `COc1ccc2c(c1)O/C(=C\c1cccc(O)c1)C2=O` [Compound 1s], at MAO-B, the IC50 was over 10 µM and the inhibition at 10 µM was found to be 48.9%. Besides, on recombinant human MAO-A, the IC50 is over 10 µM and the inhibition at 10 µM was determined as 7.73%.
`COc1ccc2c(c1)O/C(=C\c1ccc(O)cc1)C2=O` [Compound 1t]: on MAO-B, the IC50 came out at 1.33 µM, the “Selectivity index for inhibition of MAO-B” value is reported as over 75 and the inhibition at 10 µM turned out to be 89.6%. On recombinant human MAO-A, the IC50 was over 100 µM and the inhibition at 10 µM came out at 8.54%.
Regarding `COc1ccc2c(c1)O/C(=C\c1cccc(O)c1O)C2=O` [Compound 1u, (Z)-2–(2,3-Dihydroxybenzylidene)-6-methoxybenzofuran-3(2H)-one], the IC50 was determined as 2.41 µM at MAO-B and 7.04 µM on recombinant human MAO-A. Besides, the inhibition at 10 µM on MAO-B amounted to 65%; on recombinant human MAO-A, 52.8%.
As for `COc1ccc2c(c1)O/C(=C\c1ccc(O)cc1O)C2=O` [Compound 1v], at MAO-B, the IC50 came out at 6.04 µM and the inhibition at 10 µM came out at 66.7%. Besides, at recombinant human MAO-A, the half-inhibitory concentration (IC50) was determined as 8.2 µM and the inhibition at 10 µM was 55.7%.
The matching figures for `COc1ccc2c(c1)O/C(=C\c1ccc(O)c(O)c1)C2=O` [Compound 1w]: 2.41 µM, 70.5%, 5.62 µM and 60.8%.
Consider `COc1ccc2c(c1)O/C(=C\c1ccccc1OC)C2=O` [Compound 1x], for which, at MAO-B, the IC50 was found to be 0.593 µM, the “Selectivity index for inhibition of MAO-B” value is listed as over 168 and the inhibition at 10 µM stood at 89.5%. Further, in the series on BV2 cells, the “Impact on viability of BV2 cells” value was “none of the tested concentrations”. Moreover, on recombinant human MAO-A, the IC50 is over 100 µM and the inhibition at 10 µM stood at 21.6%.
